From ChEMBL document CHEMBL3785036 (J Pharm Sci, 1974)

Assays:
Format in all cases: ADME, organism-based
[1] = Drug excretion in human subject slow inactivator assessed as sum of isoniazid plus hydrazones, acetylisoniazid, isonicotinic acid and isonicotinuric acid level in urine at 681 mg, iv infused at constant rate 5.4 min measured 35.5 mins after start of drug injection by colorimetry; conditions: in vivo
[2] = Drug excretion in human subject slow inactivator assessed as sum of isoniazid plus hydrazones, acetylisoniazid, isonicotinic acid and isonicotinuric acid level in urine at 681 mg, iv infused at constant rate 5.4 min measured 116 mins after start of drug injection by colorimetry; conditions: in vivo
[3] = Drug excretion in human subject slow inactivator assessed as sum of isoniazid plus hydrazones, acetylisoniazid, isonicotinic acid and isonicotinuric acid level in urine at 681 mg, iv infused at constant rate 5.4 min measured 150 mins after start of drug injection by colorimetry; conditions: in vivo, 2.5 h
[4] = Drug excretion in human subject slow inactivator assessed as sum of isoniazid plus hydrazones, acetylisoniazid, isonicotinic acid and isonicotinuric acid level in urine at 681 mg, iv infused at constant rate 5.4 min measured 181 mins after start of drug injection by colorimetry; conditions: in vivo
[5] = Drug excretion in human subject slow inactivator assessed as sum of isoniazid plus hydrazones, acetylisoniazid, isonicotinic acid and isonicotinuric acid level in urine at 681 mg, iv infused at constant rate 5.4 min measured 208.7 mins after start of drug injection by colorimetry; conditions: in vivo, 3.47833 h
[6] = Drug excretion in human subject slow inactivator assessed as sum of isoniazid plus hydrazones, acetylisoniazid, isonicotinic acid and isonicotinuric acid level in urine at 681 mg, iv infused at constant rate 5.4 min measured 276.3 mins after start of drug injection by colorimetry; conditions: in vivo, 4.605 h
[7] = Drug excretion in human subject rapid inactivator assessed as total isonicotinoyl compound level in urine at 670 mg, iv infused at constant rate 5.2min measured 458 mins after start of drug injection by colorimetry; conditions: in vivo
[8] = Drug excretion in human subject rapid inactivator assessed as total isonicotinoyl compound level in urine at 670 mg, iv infused at constant rate 5.2min measured 486 mins after start of drug injection by colorimetry; conditions: in vivo, 8.1 h
[9] = Drug excretion in human subject slow inactivator assessed as sum of isoniazid plus hydrazones, acetylisoniazid, isonicotinic acid and isonicotinuric acid level in urine at 681 mg, iv infused at constant rate 5.4 min measured 339.3 mins after start of drug injection by colorimetry; conditions: in vivo, 5.655 h
[10] = Drug excretion in human subject slow inactivator assessed as sum of isoniazid plus hydrazones, acetylisoniazid, isonicotinic acid and isonicotinuric acid level in urine at 681 mg, iv infused at constant rate 5.4 min measured 430.2 mins after start of drug injection by colorimetry; conditions: in vivo, 7.17 h
[11] = Drug excretion in human subject slow inactivator assessed as sum of isoniazid plus hydrazones, acetylisoniazid, isonicotinic acid and isonicotinuric acid level in urine at 681 mg, iv infused at constant rate 5.4 min measured 466 mins after start of drug injection by colorimetry; conditions: in vivo
[12] = Drug excretion in human subject slow inactivator assessed as sum of isoniazid plus hydrazones, acetylisoniazid, isonicotinic acid and isonicotinuric acid level in urine at 681 mg, iv infused at constant rate 5.4 min measured 496 mins after start of drug injection by colorimetry; conditions: in vivo
[13] = Drug excretion in human subject slow inactivator assessed as sum of isoniazid plus hydrazones, acetylisoniazid, isonicotinic acid and isonicotinuric acid level in urine at 681 mg, iv infused at constant rate 5.4 min measured 524 mins after start of drug injection by colorimetry; conditions: in vivo
[14] = Drug excretion in human subject slow inactivator assessed as sum of isoniazid plus hydrazones, acetylisoniazid, isonicotinic acid and isonicotinuric acid level in urine at 681 mg, iv infused at constant rate 5.4 min measured 677 mins after start of drug injection by colorimetry; conditions: in vivo
[15] = Drug excretion in human subject slow inactivator assessed as sum of isoniazid plus hydrazones, acetylisoniazid, isonicotinic acid and isonicotinuric acid level in urine at 681 mg, iv infused at constant rate 5.4 min measured 710 mins after start of drug injection by colorimetry; conditions: in vivo
[16] = Drug excretion in human subject slow inactivator assessed as sum of isoniazid plus hydrazones, acetylisoniazid, isonicotinic acid and isonicotinuric acid level in urine at 681 mg, iv infused at constant rate 5.4 min measured 747 mins after start of drug injection by colorimetry; conditions: in vivo, 12.45 h
[17] = Drug excretion in human subject slow inactivator assessed as total isonicotinoyl compound level in urine at 681 mg, iv infused at constant rate 5.4 min measured 208.7 mins after start of drug injection by colorimetry; conditions: in vivo, 3.47833 h
[18] = Drug excretion in human subject slow inactivator assessed as total isonicotinoyl compound level in urine at 681 mg, iv infused at constant rate 5.4 min measured 276.3 mins after start of drug injection by colorimetry; conditions: in vivo, 4.605 h
[19] = Drug excretion in human rapid inactivators urine assessed as total isonicotinoyl compounds at 1 g, iv by colorimetry; conditions: in vivo
[20] = Drug metabolism in human rapid inactivators assessed as excretion of alpha-ketoglutaric acid isonicotinoylhydrazone in urine at 1 g, iv by colorimetry; conditions: in vivo
[21] = Drug metabolism in human rapid inactivators assessed as excretion of acetylisoniazid in urine at 1 g, iv by colorimetry; conditions: in vivo
[22] = Drug excretion in human subject rapid inactivator assessed as sum of isoniazid plus hydrazones, acetylisoniazid, isonicotinic acid and isonicotinuric acid level in urine at 670 mg, iv infused at constant rate 5.2min measured 126 mins after start of drug injection by colorimetry; conditions: in vivo, 2.1 h
[23] = Drug excretion in human subject rapid inactivator assessed as sum of isoniazid plus hydrazones, acetylisoniazid, isonicotinic acid and isonicotinuric acid level in urine at 670 mg, iv infused at constant rate 5.2min measured 158 mins after start of drug injection by colorimetry; conditions: in vivo
[24] = Drug excretion in human subject rapid inactivator assessed as sum of isoniazid plus hydrazones, acetylisoniazid, isonicotinic acid and isonicotinuric acid level in urine at 670 mg, iv infused at constant rate 5.2min measured 195 mins after start of drug injection by colorimetry; conditions: in vivo, 3.25 h
[25] = Drug excretion in human subject rapid inactivator assessed as sum of isoniazid plus hydrazones, acetylisoniazid, isonicotinic acid and isonicotinuric acid level in urine at 670 mg, iv infused at constant rate 5.2min measured 259 mins after start of drug injection by colorimetry; conditions: in vivo
[26] = Drug excretion in human subject rapid inactivator assessed as sum of isoniazid plus hydrazones, acetylisoniazid, isonicotinic acid and isonicotinuric acid level in urine at 670 mg, iv infused at constant rate 5.2min measured 373 mins after start of drug injection by colorimetry; conditions: in vivo
[27] = Drug excretion in human subject rapid inactivator assessed as total isonicotinoyl compound level in urine at 670 mg, iv infused at constant rate 5.2min measured 62 mins after start of drug injection by colorimetry; conditions: in vivo
[28] = Drug excretion in human subject rapid inactivator assessed as total isonicotinoyl compound level in urine at 670 mg, iv infused at constant rate 5.2min measured 94 mins after start of drug injection by colorimetry; conditions: in vivo
[29] = Drug excretion in human subject rapid inactivator assessed as total isonicotinoyl compound level in urine at 670 mg, iv infused at constant rate 5.2min measured 259 mins after start of drug injection by colorimetry; conditions: in vivo

NNC(=O)c1ccncc1 [ISONIAZID]
Drug excretion [1]: 44.45 mg | Drug excretion [2]: 32.27 mg | Drug excretion [3]: 38.71 mg | Drug excretion [4]: 34.76 mg | Drug excretion [5]: 28.41 mg | Drug excretion [6]: 32.59 mg | Drug excretion [7]: 17.2 mg | Drug excretion [8]: 12.5 mg | Drug excretion [9]: 33.69 mg | Drug excretion [10]: 21.24 mg | Drug excretion [11]: 20.23 mg | Drug excretion [12]: 14.26 mg | Drug excretion [13]: 11.32 mg | Drug excretion [14]: 11.396 mg | Drug excretion [15]: 10.68 mg | Drug excretion [16]: 10.074 mg | Drug excretion [17]: 27.1 mg | Drug excretion [18]: 33.2 mg | Drug excretion [19]: 98.8% | Drug metabolism [20]: 1.4 %molar | Drug metabolism [21]: 43.8 %molar | Drug excretion [22]: 42.3 mg | Drug excretion [23]: 49.9 mg | Drug excretion [24]: 57.7 mg | Drug excretion [25]: 40.5 mg | Drug excretion [26]: 28 mg | Drug excretion [27]: 43.3 mg | Drug excretion [28]: 51.8 mg | Drug excretion [29]: 39.7 mg
